Results as given in patent US20150031102A1, “METHODS AND COMPOSITIONS FOR ENHANCED PRODUCTION OF BUTANOL BY CLOSTRIDIA” (Butrolix LLC, priority 2012, published 2015).

Test system: Clostridium acetobutylicum strain ATCC 824
Assay: Sequential batch transfer in 24-well culture plates (butanol, residual glucose, butanol yield and productivity)
Format: cell-based
Details: for Residual glucose concentration: initial glucose 60 g/L
Method: Each well contained 1.5 mL of growth medium. Peptide was added to each well at the indicated concentration (0, 25, 50, and 100 nM). Every 24 hours fresh medium and peptide treatment were added to a new column of wells then 1.5 μL of the previous day culture was transferred to the new well. Wells were harvested for glucose and butanol analysis after 96 hours of growth. Transfers 1, 4, 7, 10, 13, 16, […].
Briefly, Clostridium spores were germinated in a suitable growth medium for 18-24 hours then […] was transferred to 1.5 mL of fresh medium in each of four wells on a 24-well culture plate. Three of the wells had been treated with 25 nM, 50 nM and 100 nM of peptide, respectively while the fourth well was untreated. Thereafter, every 24 hours […] of each subculture was transferred to 1.5 mL of fresh medium that contained the same peptide treatment or no treatment. Transfers of successive subcultures were done for 24 days, and each subculture was grown for 96 hours before being harvested. Culture supernatants were recovered following centrifugation and were analyzed for butanol and residual glucose concentrations. Determination of optimum peptide treatment levels was based on a graphical comparison of the concentration of butanol in each of the four culture wells for sequential transfers 1, 4, 7, 10, 13, 16, 19, 22 and 24.
Clostridium acetobutylicum strain ATCC 824 was used in all experiments and the growth medium used for sequential batch transfer, time course, and continuous culture experiments contained yeast extract, casamino acids, L-cysteine, L-asparagine, phosphate buffer, trace minerals, and 6% glucose. What are believed to be quorum-sensing peptides that were used in the experiments were chemically synthesized peptides SEQ ID NO: 143 (amino acid sequence: SYPGWSW) and SEQ ID NO: 144 (amino acid sequence: ILILISG). Routine growth of the bacteria as well as the sequential batch and time course experiments were conducted in a Form a Scientific Model 1029 anaerobic gas chamber at 32° C. Continuous cultures were performed at 32° C. using duplicate New Brunswick Scientific BioFlo 3000 apparati with a dilution rate of 0.01 volume per hour, 75 rpm agitation, and nitrogen gas sparging. Optical density of culture samples was measured at 600 nm in a Beckman DU 600 series spectrophotometer and glucose was analyzed using a YSI Model 2700 Select Biochemistry Analyzer with internal glucose calibration. Butanol concentrations were determined by measuring experimental and standard samples using a Varian Saturn 3 Gas Chromatograph/Mass Spectrometer and calculating butanol concentrations using standard curves.
(§1) Sequential batch transfer experiments were carried out in 24-well culture plates that contained 1.5 mL of medium per well. Peptide was added to each well at the indicated concentrations of 0 nM (control), 25 nM, 50 nM, or 100 nM. Every 24 hours, fresh medium and peptide treatments were added to a new column of wells. Then, 1.5 uL of the previous day culture was transferred to the new well. Wells were harvested for glucose and butanol analysis after 96 hours of growth; transfers 1, 4, 7, 10, 13, 16, 19, 22, and 24 were analyzed. Two representative experiments are shown in Tables 30 and 31 and FIGS. 14 and 15.
as §1, with “32” for “30”, “33” for “31”, “16” for “14”, “17.” for “15.”

[1] = 50 nM peptide, transfer 19, after 96 hours of culture, Expt. 1
[2] = 50 nM peptide, transfer 22, after 96 hours of culture, Expt. 1
[3] = 50 nM peptide, transfer 24, after 96 hours of culture, Expt. 1
[4] = 100 nM peptide, transfer 1, after 96 hours of culture, Expt. 1
[5] = 100 nM peptide, transfer 4, after 96 hours of culture, Expt. 1
[6] = 100 nM peptide, transfer 7, after 96 hours of culture, Expt. 1
[7] = 100 nM peptide, transfer 10, after 96 hours of culture, Expt. 1
[8] = 100 nM peptide, transfer 13, after 96 hours of culture, Expt. 1
[9] = 100 nM peptide, transfer 16, after 96 hours of culture, Expt. 1
[10] = 100 nM peptide, transfer 19, after 96 hours of culture, Expt. 1
[11] = 100 nM peptide, transfer 22, after 96 hours of culture, Expt. 1
[12] = 100 nM peptide, transfer 24, after 96 hours of culture, Expt. 1
[13] = BP1106213 first experiment, 25 nM, transfer 10

ILILISG (Derived from Clostridium acetobutylicum SEQ ID NO: 110) [peptide SEQ ID NO: 144]
Butanol concentration [1]: 8.40 g/L
Butanol productivity [1]: 0.09 g butanol/L-h
Butanol yield [1]: 0.14 g butanol/g/glucose
Butanol concentration (50 nM peptide, transfer 19, after 96 hours of culture, Expt. 2 (repeat), Table 58): 4.66 g/L
Residual glucose concentration [1]: 0.0 g/L
Residual glucose concentration (50 nM peptide, transfer 19, after 96 hours of culture, Expt. 2 (repeat), Table 45): 49.2 g/L
Butanol concentration [2]: 14.14 g/L
Butanol productivity [2]: 0.15 g butanol/L-h
Butanol yield [2]: 0.23 g butanol/g/glucose
Butanol concentration (50 nM peptide, transfer 22, after 96 hours of culture, Expt. 2 (repeat), Table 58): 4.22 g/L
Residual glucose concentration [2]: 12.6 g/L
Residual glucose concentration (50 nM peptide, transfer 22, after 96 hours of culture, Expt. 2 (repeat), Table 45): 40.2 g/L
Butanol concentration [3]: 6.90 g/L
Butanol productivity [3]: 0.07 g butanol/L-h
Butanol yield [3]: 0.11 g butanol/g/glucose
Butanol concentration (50 nM peptide, transfer 24, after 96 hours of culture, Expt. 2 (repeat), Table 58): 1.87 g/L
Residual glucose concentration [3]: 43.2 g/L
Residual glucose concentration (50 nM peptide, transfer 24, after 96 hours of culture, Expt. 2 (repeat), Table 45): 0.0 g/L
Butanol concentration [4]: 1.78 g/L
Butanol productivity [4]: 0.02 g butanol/L-h
Butanol yield [4]: 0.03 g butanol/g/glucose
Butanol concentration (100 nM peptide, transfer 1, after 96 hours of culture, Expt. 2 (repeat), Table 58): 1.19 g/L
Residual glucose concentration [4]: 48.5 g/L
Residual glucose concentration (100 nM peptide, transfer 1, after 96 hours of culture, Expt. 2 (repeat), Table 45): 55.8 g/L
Butanol concentration [5]: 7.17 g/L
Butanol productivity [5]: 0.07 g butanol/L-h
Butanol yield [5]: 0.12 g butanol/g/glucose
Butanol concentration (100 nM peptide, transfer 4, after 96 hours of culture, Expt. 2 (repeat), Table 58): 2.12 g/L
Residual glucose concentration [5]: 0.0 g/L
Residual glucose concentration (100 nM peptide, transfer 4, after 96 hours of culture, Expt. 2 (repeat), Table 45): 49.9 g/L
Butanol concentration [6]: 5.62 g/L
Butanol productivity [6]: 0.06 g butanol/L-h
Butanol yield [6]: 0.09 g butanol/g/glucose
Butanol concentration (100 nM peptide, transfer 7, after 96 hours of culture, Expt. 2 (repeat), Table 58): 2.11 g/L
Residual glucose concentration [6]: 0.0 g/L
Residual glucose concentration (100 nM peptide, transfer 7, after 96 hours of culture, Expt. 2 (repeat), Table 45): 49.4 g/L
Butanol concentration [7]: 7.91 g/L
Butanol productivity [7]: 0.08 g butanol/L-h
Butanol yield [7]: 0.13 g butanol/g/glucose
Butanol concentration (100 nM peptide, transfer 10, after 96 hours of culture, Expt. 2 (repeat), Table 58): 2.07 g/L
Residual glucose concentration [7]: 0.1 g/L
Residual glucose concentration (100 nM peptide, transfer 10, after 96 hours of culture, Expt. 2 (repeat), Table 45): 51.2 g/L
Butanol concentration [8]: 6.37 g/L
Butanol productivity [8]: 0.07 g butanol/L-h
Butanol yield [8]: 0.11 g butanol/g/glucose
Butanol concentration (100 nM peptide, transfer 13, after 96 hours of culture, Expt. 2 (repeat), Table 58): 1.54 g/L
Residual glucose concentration [8]: 0.1 g/L
Residual glucose concentration (100 nM peptide, transfer 13, after 96 hours of culture, Expt. 2 (repeat), Table 45): 49.7 g/L
Butanol concentration [9]: 7.11 g/L
Butanol productivity [9]: 0.07 g butanol/L-h
Butanol yield [9]: 0.12 g butanol/g/glucose
Butanol concentration (100 nM peptide, transfer 16, after 96 hours of culture, Expt. 2 (repeat), Table 58): 5.68 g/L
Residual glucose concentration [9]: 0.1 g/L
Residual glucose concentration (100 nM peptide, transfer 16, after 96 hours of culture, Expt. 2 (repeat), Table 45): 0.0 g/L
Butanol concentration [10]: 5.55 g/L
Butanol productivity [10]: 0.06 g butanol/L-h
Butanol yield [10]: 0.09 g butanol/g/glucose
Butanol concentration (100 nM peptide, transfer 19, after 96 hours of culture, Expt. 2 (repeat), Table 58): 2.61 g/L
Residual glucose concentration [10]: 0.0 g/L
Residual glucose concentration (100 nM peptide, transfer 19, after 96 hours of culture, Expt. 2 (repeat), Table 45): 0.0 g/L
Butanol concentration [11]: 13.86 g/L
Butanol productivity [11]: 0.14 g butanol/L-h
Butanol yield [11]: 0.23 g butanol/g/glucose
Butanol concentration (100 nM peptide, transfer 22, after 96 hours of culture, Expt. 2 (repeat), Table 58): 3.41 g/L
Residual glucose concentration [11]: 0.6 g/L
Residual glucose concentration (100 nM peptide, transfer 22, after 96 hours of culture, Expt. 2 (repeat), Table 45): 0.1 g/L
Butanol concentration [12]: 7.20 g/L
Butanol productivity [12]: 0.07 g butanol/L-h
Butanol yield [12]: 0.12 g butanol/g/glucose
Butanol concentration (100 nM peptide, transfer 24, after 96 hours of culture, Expt. 2 (repeat), Table 58): 3.29 g/L
Residual glucose concentration [12]: 0.1 g/L
Residual glucose concentration (100 nM peptide, transfer 24, after 96 hours of culture, Expt. 2 (repeat), Table 45): 0.1 g/L
Increase in butanol yield (BP1106213, batch cultures (summary of findings)): more than 50%
Transfers over which butanol production was enhanced (BP1106213, sequential batch cultures (summary of findings)): transfer 4 through transfer 16
Butanol productivity [13]: 0.12 g butanol/1-hour
Butanol yield [13]: 0.20 g butanol/g glucose
Butanol yield and productivity greater than untreated control [13]: more than 50%
Effect on butanol production versus untreated control (BP1106213 first experiment, 100 nM): generally resulted in decreased butanol production, or no difference from the untreated control
Glucose consumption (BP1106213 first experiment, all treated and untreated cultures, transfer 4 through transfer 19): ~100%
Effect on butanol production versus untreated control (BP1106213 repeated (second) experiment, on the whole): inhibit butanol production
Increase in butanol over untreated control (SEQ ID NO: 144 first experiment, 25 nM, transfer 4): 31%
Increase in butanol over untreated control (SEQ ID NO: 144 first experiment, 25 nM, transfer 10): 57%
Increase in butanol over untreated control (SEQ ID NO: 144 first experiment, 25 nM, transfer 16): 21%
Increase in butanol over untreated control (SEQ ID NO: 144 first experiment, 50 nM, transfer 4): 25%
Increase in butanol over untreated control (SEQ ID NO: 144 first experiment, 50 nM, transfer 10): 46%
Increase in butanol over untreated control (SEQ ID NO: 144 first experiment, 50 nM, transfer 16): 35%
Increase in butanol over untreated control (SEQ ID NO: 144 second experiment, 25 nM, transfer 13): 283%
Increase in butanol over untreated control (SEQ ID NO: 144 second experiment, 25 nM, transfer 16): 10%
Increase in butanol over untreated control (SEQ ID NO: 144 second experiment, 50 nM, transfer 13): 85%
Effect on differentiation and butanol production (some sequential cultures): inducer of differentiation and butanol production
